Data set [1] has as its system surface MHC-I in uninfected SupT1 cells (GFP-negative). As to the kind of experiment: Surface MHC-I in GFP-negative (uninfected) SupT1 cells of cultures treated with HIV-1 (FIG. 4). It counts as cell-based. The following applies: dose-dependent. The procedure: FIG. 4 represents the levels of expression of surface MHC-I in uninfected SupT1 cells (GFP-negative) incubated with vehicle alone (0.1% DMSO) or with compounds #40, #53, #54, #56 or #100 at different concentrations. Values are shown as the percentage of the MHC-I expression observed in cells treated with 0.1% DMSO alone. All samples were incubated with HIV-1 reporter virus (NL4.3-GFP) except those shown as ΔNef, which are shown for reference and were treated with nef-defective virus.
To determine whether the inhibitors of MHC-I downmodulation are specific for HIV infection a study to determine whether the compounds also interfere with expression of MHC-I in uninfected cells was undertaken. The effect of the same compounds was evaluated in SupT-1 cells treated with HIV-1 as shown before, but this time the levels of expression of MHC-I were obtained in GFP-negative cells (FIG. 4). […] The increase was dose-dependent and compounds elevated MHC-I levels by as much as 70% (as compared to cells treated with vehicle alone).

For data set [2], the system named is downmodulation of MHC-I molecules expressed on the surface of HIV infected SupT1 cells. The following applies: for EC50: read-out: EC50 for inhibition of MHC-I downmodulation utilizing the R1 parameter, SupT1 cells infected with HIV-1, compounds added 20 h after infection, 24 h incubation.
The test system is the same in data set [3]. Nature of the data set: cells.
A short description of a further data set: in vitro. The following applies: human, uninfected SupT1 cells.
In another data set the test system is uninfected SupT1 cells. Nature of the data set: Compound-induced toxicity, XTT cell viability assay. The following applies: read-out: CC50 (concentration reducing cell viability by 50%), XTT method, 48 h, Tables 3 and 4. For orientation: Tetrazolium assays rely on reduction of a dye to a coloured formazan, in cell work by metabolically active cells.
Data set [4] concerns MHC-I surface expression in uninfected SupT1 cells. Nature of the data set: Increase of MHC-I surface expression in uninfected SupT1 cells (mean-MHC-I EC50, FIG. 6A). It counts as cell-based. To be noted: Homo sapiens, SUP-T1, 24 h with compound, read-out: EC50 for MHC-I increased surface expression. As for the experimental part: In some instances, the effect of small molecules in modulation of surface MHC-I was monitored in uninfected (rather than HIV-infected) Sup-T1 cells (FIG. 6A). In these experiments uninfected SupT1 cells were incubated with the compounds for 24 h and then the increase in MHC-I surface expression was monitored by staining cells with the biotinylated HLA-A2/28 antibody (One Lambda, clone BIH0037), washed and then incubated with streptavidin conjugated with APC (Streptavidin APC, EBiosciences, 17-4317) to reveal the anti-HLA-A2 bound antibody. After washing the cells again they were fixed with 0.5% paraformaldehyde and submitted to flow cytometry to determine the levels of MHC-I surface expression (APC fluorescence) in live cells (as estimated by FS/SS in these cells). […] From these assays “mean-MHC-I” EC50 values were generated to indicate the concentration of compound that augments the mean surface levels of MHC-I to 50% of the highest levels accomplished by the compound, as compared to cells treated with vehicle alone. […] Therefore, both assays: inhibition of MHC-I downmodulation in HIV infected SupT1 cells, or increase in surface MHC-I in uninfected SupT1 cells, were indistinctively used to monitor the potency of the compounds to modulate surface expression of MHC-I in SupT1 cells.
Table 7 show the activity of selected compounds utilizing the assay in which the increase of MHC-I surface expression in uninfected SupT1 cells was evaluated, as shown in FIG. 6A. The EC50 for MHC-I increased surface expression was determined using the methods described in Example 2 and illustrated in FIG. 6A.

Where [5] appears, read: Human immunodeficiency virus 1, SUP-T1, read-out: EC50 for inhibition of MHC-I downmodulation utilizing the R1 parameter.
Setting [6] is: Human immunodeficiency virus 1, SUP-T1, 24 h, read-out: EC50 for R1 (inhibition of MHC-I downmodulation).

SMILES strings stand for the structures. Like-named read-outs stand apart in the source and are kept apart here. A value given as a limit tells only on which side of the number the result lay.

As a reminder, the EC50 is the midpoint of the concentration-response curve. As for `Cc1ccc(CN(C(=O)COc2cccc3c2OC(C)(C)C3)c2nc3c(s2)CCCC3)nc1` [Compound 40, 2-((2,2-Dimethyl-2,3-dihydrobenzofuran-7-yl)oxy)-N-((5-methylpyridin-2-yl)methyl)-N-(4,5,6,7-tetrahydrobenzo[d]thiazol-2-yl)acetamide], the “surface levels of MHC-I in uninfected cells” value (“surface levels of MHC-I” below) in data set [1] is recorded as “increased the surface levels of MHC-I in uninfected cells”. Also, in data set [2] (100 nM compound, FIG. 2G), the “viability of the cell culture (estimated by FS/SS)” value is listed as “nor the viability of the cell culture (estimated by FS/SS) was affected”. For the same molecule, the “R4 values lower than in cells treated with DMSO only” value in data set [2] (100 nM compound, SupT1 cells infected with wild-type virus) is listed as “approximately 10 fold”. In addition, in data set [3] (setting [5]), the EC50 was determined as 8 nM. The CC50 at 48 h in the data set “in vitro” is greater than 100000 nM.

On to `Cc1ccccc1CCC(=O)N(C)c1nc2c(s1)CCCC2` [Compound 109, N-Methyl-N-(4,5,6,7-tetrahydrobenzo[d]thiazol-2-yl)-3-(o-tolyl) propanamide], for which the EC50 in data set [2] turned out to be 2100 nM. Also, the CC50 in the data set on uninfected SupT1 cells was greater than 125000 nM.

For `CCN(C(=O)COc1cccc2c1OC(C)(C)C2)c1nc2c(s1)CCCC2` [Compound 54, 2-((2,2-Dimethyl-2,3-dihydrobenzofuran-7-yl)oxy)-N-ethyl-N-(4,5,6,7-tetrahydrobenzo[d]thiazol-2-yl)acetamide], the results for the EC50 in data set [4] and in data set [3] (setting [5]) were 9 nM and 8 nM, respectively. In addition, the “surface levels of MHC-I” value in data set [1] was “increased the surface levels of MHC-I in uninfected cells”. In “in vitro”, the CC50 was greater than 125000 nM. In the data set “in vitro”, this molecule yielded a CC50 at 48 h greater than 125000 nM.

Regarding `CC1(C)Cc2cccc(CCC(=O)Nc3nc4ccccc4s3)c2O1` [Compound 108, N-(Benzo[d]thiazol-2-yl)-3-(2,2-dimethyl-2,3-dihydrobenzofuran-7-yl) propanamide], in data set [2], the EC50 stood at 1370 nM. Moreover, in the data set on uninfected SupT1 cells, the CC50 is greater than 100000 nM.

Turning to `CC1(C)Cc2cc(C(F)(F)F)cc(OCC(=O)Nc3nc4c(s3)CCCC4)c2O1` [Compound 173, 2-((2,2-Dimethyl-5-(trifluoromethyl)-2,3-dihydrobenzofuran-7-yl)oxy)-N-(4,5,6,7-tetrahydrobenzo[d]thiazol-2-yl)acetamide], the EC50 in data set [4] came to 2500 nM. For the same molecule, the CC50 in “in vitro” was greater than 125000 nM.

Take `Cc1cc(C)nc(NC(=O)COc2cccc3c2OC(C)(C)C3)c1` [Compound 169, 2-((2,2-Dimethyl-2,3-dihydrobenzofuran-7-yl)oxy)-N-(4,6-dimethylpyridin-2-yl)acetamide]: the EC50 in data set [4] was greater than 25000 nM. This molecule displayed a CC50 in the data set “in vitro” greater than 125000 nM.

Turning to `O=C(COc1cccc2[nH]ccc12)N(CC(F)(F)F)c1nc2c(s1)CCCC2` [Compound 165, 2-((1H-Indol-4-yl)oxy)-N-(4,5,6,7-tetrahydrobenzo[d]thiazol-2-yl)-N-(2,2,2-trifluoroethyl)acetamide], the EC50 in data set [4] stood at 1000 nM. The molecule further returned a CC50 in “in vitro” greater than 125000 nM.

In the case of `C=CCN(C(=O)COc1cccc2c1OC(C)(C)C2)c1nc2c(s1)CCCC2` [Compound 56, N-Allyl-2-((2,2-dimethyl-2,3-dihydrobenzofuran-7-yl)oxy)-N-(4,5,6,7-tetrahydrobenzo[d]thiazol-2-yl)acetamide], the figures for the EC50 in data set [4], in data set [3] (setting [6]) and in data set [3] (setting [5]) were 6 nM, roughly 1 nM and 1 nM, respectively. For the same molecule, the “surface levels of MHC-I” value in data set [1] is “increased the surface levels of MHC-I in uninfected cells”. Besides, the CC50 in “in vitro” was greater than 125000 nM. Moreover, the CC50 at 48 h in “in vitro” is greater than 125000 nM.

As to `CC1(C)Cc2cccc(OCC(=O)Nc3nc4c(C#N)cccc4s3)c2O1` [Compound 100, N-(4-cyanobenzo[d]thiazol-2-yl)-2-((2,2-dimethyl-2,3-dihydrobenzofuran-7-yl)oxy)acetamide], the “surface levels of MHC-I” value in data set [1] is on record as “increased the surface levels of MHC-I in uninfected cells”. Besides, the EC50 in data set [3] (setting [6]) and in data set [3] (setting [5]) was 70 nM in each case. Also, the CC50 at 48 h in the data set “in vitro” was 100 nM.

`CN(C(=O)COc1cccc2c1OC(C)(C)C2)c1nc2c(s1)CCCC2` [Compound 53, 2-((2,2-Dimethyl-2,3-dihydrobenzofuran-7-yl)oxy)-N-methyl-N-(4,5,6,7-tetrahydrobenzo[d]thiazol-2-yl)acetamide]: the EC50 in data set [4] was 12 nM; in data set [3] (setting [5]) it was 3 nM. Further, the “surface levels of MHC-I” value in data set [1] was “increased the surface levels of MHC-I in uninfected cells”. The CC50 in the data set “in vitro” is greater than 125000 nM. The molecule further registered a CC50 at 48 h in “in vitro” greater than 125000 nM.

With `Cc1nc(NC(=O)COc2cccc3c2OC(C)(C)C3)ccc1C#N` [Compound 168, N-(5-Cyano-6-methylpyridin-2-yl)-2-((2,2-dimethyl-2,3-dihydrobenzofuran-7-yl)oxy)acetamide], the EC50 in data set [4] is greater than 25000 nM. In “in vitro”, this molecule gave a CC50 greater than 125000 nM.

Turning to `Cc1nc(NC(=O)C(Cc2ccccc2)Oc2cccc3c2OC(C)(C)C3)ccc1C1CC1` (racemic) [Compound 172, (±)-N-(5-Cyclopropyl-6-methylpyridin-2-yl)-2-((2,2-dimethyl-2,3-dihydrobenzofuran-7-yl)oxy)-3-phenylpropanamide], in data set [4], the EC50 is 8400 nM. Further, the CC50 in “in vitro” was greater than 125000 nM.

As to `CC1(C)Cc2cccc(OC(Cc3ccccc3)C(=O)Nc3nc4c(s3)CCCC4)c2O1` (racemic) [Compound 171, (±)-2-((2,2-Dimethyl-2,3-dihydrobenzofuran-7-yl)oxy)-3-phenyl-N-(4,5,6,7-tetrahydrobenzo[d]thiazol-2-yl)propanamide], in data set [4], the EC50 was 6200 nM. Further, the CC50 in “in vitro” is greater than 125000 nM.
